Measurements from the NIST ThermoML archive (doi:10.1021/je9004905).
Several values for one entry are separate records, joined by “and”; a condition that tells them apart may be missing. Identical values can stand only once.

Details: Liquid, Closed cell (Static) method

OCCO [1,2-ethanediol]
Details	vapor or sublimation pressure [kPa]
307.7 K	0.028
312.6 K	0.041
316.5 K	0.055
318.8 K	0.061
322.1 K	0.077
326.1 K	0.107
328.2 K	0.124
334.5 K	0.196
335.2 K	0.201
340.2 K	0.278
347.9 K	0.454
359.2 K	0.9
367.9 K	1.483
373.4 K	1.95
384.5 K	3.467

O=CCO [2-hydroxyacetaldehyde]
Details	vapor or sublimation pressure [kPa]
295.85 K	0.0037
305.1 K	0.009
305.51 K	0.0096
319.5 K	0.0335
319.84 K	0.0335
322.38 K	0.0368
323.64 K	0.0458
327.73 K	0.062
333.04 K	0.0984
339.32 K	0.153
340.91 K	0.17
341.95 K	0.182
342.82 K	0.198
346.83 K	0.253
355.98 K	0.486

CC(=O)CO [acetol]
Details	vapor or sublimation pressure
273.22 K	0.127 kPa
275.48 K	0.136 kPa
277.78 K	0.162 kPa
278.55 K	0.167 kPa and 0.172 kPa
280.9 K	0.201 kPa
281.69 K	0.205 kPa and 0.21 kPa
289.86 K	0.356 kPa
290.7 K	0.363 kPa and 0.36 kPa
293.26 K	0.431 kPa
295.86 K	0.516 kPa and 0.495 kPa
296.74 K	0.531 kPa
300.3 K	0.617 kPa
301.2 K	0.642 kPa
302.11 K	0.717 kPa
303.03 K	0.746 kPa
303.95 K	0.817 kPa
